Experimental data taken from doi:10.1101/2025.09.23.678079v1 (biorxiv, 2025).
Values after ≈ are worked out from the molar mass of the structure shown.

How the values were obtained:
HPK1 = HPK1 (Homo sapiens, UniProt Q92918); test: HTRF enzymatic assay; assay type: biochemical
in vitro [1] = settings: dog, plasma
in vitro [2] = test: in vitro; design: species or system CT26; settings: human, hepg2 cells
in vitro [3] = settings: mouse, plasma
in vitro [4] = settings: human, Caco-2
in vitro [5] = test: in vitro; design: species or system HepG2; settings: mouse, ct26 cells
in vitro [6] = settings: rat, hepatocytes
human primary T cells = test: cells; settings: T-cell, read-out: IL-2 increase EC50 (nM)
in vitro [7] = settings: rat, plasma
hERG [8] = biological target: T1, hERG (Homo sapiens, UniProt Q12809, species not given); test: in vitro
T1 sequence (Q12809 whole entry): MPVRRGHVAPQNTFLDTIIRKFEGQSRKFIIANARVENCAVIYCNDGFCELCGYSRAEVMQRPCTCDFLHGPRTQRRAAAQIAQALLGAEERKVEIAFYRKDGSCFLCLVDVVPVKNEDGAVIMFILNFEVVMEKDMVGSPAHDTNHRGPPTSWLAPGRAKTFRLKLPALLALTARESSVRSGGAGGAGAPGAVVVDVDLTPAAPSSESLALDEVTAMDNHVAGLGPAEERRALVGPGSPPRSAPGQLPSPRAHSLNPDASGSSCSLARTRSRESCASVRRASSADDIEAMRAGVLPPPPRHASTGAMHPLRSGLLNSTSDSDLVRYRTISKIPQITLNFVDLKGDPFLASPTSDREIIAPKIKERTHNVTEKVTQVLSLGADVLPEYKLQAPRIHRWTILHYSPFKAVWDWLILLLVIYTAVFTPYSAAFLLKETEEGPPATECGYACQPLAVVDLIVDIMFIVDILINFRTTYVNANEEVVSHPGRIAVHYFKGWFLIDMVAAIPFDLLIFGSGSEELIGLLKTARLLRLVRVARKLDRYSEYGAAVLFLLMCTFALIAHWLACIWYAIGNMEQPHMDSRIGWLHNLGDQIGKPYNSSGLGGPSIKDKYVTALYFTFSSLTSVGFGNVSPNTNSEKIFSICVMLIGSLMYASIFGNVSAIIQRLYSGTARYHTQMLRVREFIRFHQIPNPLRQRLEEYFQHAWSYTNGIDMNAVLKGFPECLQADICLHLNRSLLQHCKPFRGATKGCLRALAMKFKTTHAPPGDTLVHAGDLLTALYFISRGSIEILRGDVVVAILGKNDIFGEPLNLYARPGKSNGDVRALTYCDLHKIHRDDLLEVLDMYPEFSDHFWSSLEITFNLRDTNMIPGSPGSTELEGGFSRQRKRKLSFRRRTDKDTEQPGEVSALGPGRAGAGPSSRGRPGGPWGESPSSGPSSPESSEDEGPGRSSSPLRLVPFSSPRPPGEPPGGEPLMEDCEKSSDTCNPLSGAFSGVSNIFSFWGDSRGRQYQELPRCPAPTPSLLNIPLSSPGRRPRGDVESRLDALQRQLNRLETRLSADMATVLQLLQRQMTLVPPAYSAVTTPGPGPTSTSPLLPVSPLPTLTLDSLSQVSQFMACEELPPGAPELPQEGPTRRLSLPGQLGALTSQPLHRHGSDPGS

physchem = settings: aqueous buffer, pH 7.4, aqueous buffer
in vitro [9] = settings: mouse, hepatocytes
in vitro [10] = settings: human, plasma
CYP2C19 = CYP2C19 (Homo sapiens, UniProt P33261); test: in vitro
Sequence of CYP2C19 (P33261 whole entry): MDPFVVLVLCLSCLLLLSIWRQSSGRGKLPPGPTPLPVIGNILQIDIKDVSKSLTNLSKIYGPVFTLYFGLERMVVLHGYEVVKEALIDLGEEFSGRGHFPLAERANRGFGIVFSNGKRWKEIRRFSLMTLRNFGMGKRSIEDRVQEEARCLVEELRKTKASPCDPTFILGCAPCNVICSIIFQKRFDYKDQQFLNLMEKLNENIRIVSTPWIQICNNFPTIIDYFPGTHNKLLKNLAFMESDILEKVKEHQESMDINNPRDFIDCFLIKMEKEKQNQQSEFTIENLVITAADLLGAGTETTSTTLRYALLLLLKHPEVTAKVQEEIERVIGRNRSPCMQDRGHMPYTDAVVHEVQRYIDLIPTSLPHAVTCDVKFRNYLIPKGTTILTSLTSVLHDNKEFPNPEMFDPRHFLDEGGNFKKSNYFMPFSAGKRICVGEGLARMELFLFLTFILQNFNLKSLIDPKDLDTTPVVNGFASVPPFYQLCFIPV

CYP1A2 = biological target: T2, CYP1A2 (Homo sapiens, UniProt P05177); test: in vitro
T2 sequence (P05177 1-516): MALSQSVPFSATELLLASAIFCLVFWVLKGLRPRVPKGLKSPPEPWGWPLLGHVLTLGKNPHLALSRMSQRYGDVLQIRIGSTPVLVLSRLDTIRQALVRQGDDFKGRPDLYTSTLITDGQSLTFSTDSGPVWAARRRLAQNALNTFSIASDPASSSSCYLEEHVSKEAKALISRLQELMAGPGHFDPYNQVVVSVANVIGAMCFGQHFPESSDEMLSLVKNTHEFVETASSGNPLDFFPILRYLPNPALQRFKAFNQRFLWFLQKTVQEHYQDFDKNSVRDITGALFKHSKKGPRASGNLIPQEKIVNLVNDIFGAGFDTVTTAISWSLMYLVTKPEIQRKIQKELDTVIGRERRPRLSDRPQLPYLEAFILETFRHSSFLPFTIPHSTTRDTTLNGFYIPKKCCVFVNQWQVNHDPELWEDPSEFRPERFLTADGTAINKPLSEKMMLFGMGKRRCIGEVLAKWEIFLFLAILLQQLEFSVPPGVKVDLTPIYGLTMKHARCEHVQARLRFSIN

PXR = biological target: T3, PXR (Homo sapiens, UniProt O75469); test: in vitro
T3 sequence (O75469 1-434): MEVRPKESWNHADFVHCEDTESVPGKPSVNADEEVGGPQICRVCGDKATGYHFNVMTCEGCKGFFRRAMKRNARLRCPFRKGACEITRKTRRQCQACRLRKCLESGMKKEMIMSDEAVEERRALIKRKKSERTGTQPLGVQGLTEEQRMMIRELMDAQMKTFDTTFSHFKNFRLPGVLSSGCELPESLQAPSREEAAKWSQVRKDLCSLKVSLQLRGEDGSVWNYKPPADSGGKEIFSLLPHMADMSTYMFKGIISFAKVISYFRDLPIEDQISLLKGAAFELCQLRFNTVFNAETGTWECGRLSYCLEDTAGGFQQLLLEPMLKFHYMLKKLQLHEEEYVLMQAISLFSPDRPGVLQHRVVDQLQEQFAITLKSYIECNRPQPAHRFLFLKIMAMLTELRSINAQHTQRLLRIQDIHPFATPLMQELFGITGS

in vitro [11] = settings: dog, hepatocytes
CYP2D6 = CYP2D6 (Homo sapiens, UniProt P10635); test: in vitro
Sequence of CYP2D6 (P10635 whole entry): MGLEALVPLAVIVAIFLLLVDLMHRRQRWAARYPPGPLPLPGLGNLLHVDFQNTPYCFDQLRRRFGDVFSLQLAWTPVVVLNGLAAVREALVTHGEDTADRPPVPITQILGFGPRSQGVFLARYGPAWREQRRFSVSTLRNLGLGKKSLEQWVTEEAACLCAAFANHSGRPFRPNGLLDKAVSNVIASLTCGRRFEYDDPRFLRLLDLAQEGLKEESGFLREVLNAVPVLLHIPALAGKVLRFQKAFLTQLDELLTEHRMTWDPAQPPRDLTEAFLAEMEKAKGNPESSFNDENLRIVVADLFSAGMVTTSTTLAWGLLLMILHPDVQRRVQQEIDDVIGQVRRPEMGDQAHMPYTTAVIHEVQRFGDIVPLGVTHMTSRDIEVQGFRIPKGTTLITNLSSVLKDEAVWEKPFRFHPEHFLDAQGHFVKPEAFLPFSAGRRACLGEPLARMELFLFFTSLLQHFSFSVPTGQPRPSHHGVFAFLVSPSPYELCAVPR

in vitro [12] = settings: human, hepatocytes
CYP2C9 = CYP2C9 (Homo sapiens, UniProt P11712); test: in vitro
Sequence of CYP2C9 (P11712 whole entry): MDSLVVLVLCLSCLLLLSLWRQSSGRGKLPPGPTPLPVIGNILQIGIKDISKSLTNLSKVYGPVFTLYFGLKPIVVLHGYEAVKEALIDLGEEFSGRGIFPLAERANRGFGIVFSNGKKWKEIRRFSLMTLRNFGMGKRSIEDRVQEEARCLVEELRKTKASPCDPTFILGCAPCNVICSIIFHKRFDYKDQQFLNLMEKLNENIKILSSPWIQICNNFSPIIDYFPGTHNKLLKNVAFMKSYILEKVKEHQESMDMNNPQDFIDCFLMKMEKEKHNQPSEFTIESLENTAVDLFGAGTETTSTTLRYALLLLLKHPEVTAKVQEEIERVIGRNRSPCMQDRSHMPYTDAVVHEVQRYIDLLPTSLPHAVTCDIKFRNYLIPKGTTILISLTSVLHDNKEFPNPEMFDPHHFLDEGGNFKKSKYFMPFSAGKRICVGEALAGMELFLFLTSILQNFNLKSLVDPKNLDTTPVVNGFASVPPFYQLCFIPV

hERG [13] = biological target: T1, hERG; test: in vitro; remark: listed apart in the source

Sequence of HPK1 (Q92918 whole entry): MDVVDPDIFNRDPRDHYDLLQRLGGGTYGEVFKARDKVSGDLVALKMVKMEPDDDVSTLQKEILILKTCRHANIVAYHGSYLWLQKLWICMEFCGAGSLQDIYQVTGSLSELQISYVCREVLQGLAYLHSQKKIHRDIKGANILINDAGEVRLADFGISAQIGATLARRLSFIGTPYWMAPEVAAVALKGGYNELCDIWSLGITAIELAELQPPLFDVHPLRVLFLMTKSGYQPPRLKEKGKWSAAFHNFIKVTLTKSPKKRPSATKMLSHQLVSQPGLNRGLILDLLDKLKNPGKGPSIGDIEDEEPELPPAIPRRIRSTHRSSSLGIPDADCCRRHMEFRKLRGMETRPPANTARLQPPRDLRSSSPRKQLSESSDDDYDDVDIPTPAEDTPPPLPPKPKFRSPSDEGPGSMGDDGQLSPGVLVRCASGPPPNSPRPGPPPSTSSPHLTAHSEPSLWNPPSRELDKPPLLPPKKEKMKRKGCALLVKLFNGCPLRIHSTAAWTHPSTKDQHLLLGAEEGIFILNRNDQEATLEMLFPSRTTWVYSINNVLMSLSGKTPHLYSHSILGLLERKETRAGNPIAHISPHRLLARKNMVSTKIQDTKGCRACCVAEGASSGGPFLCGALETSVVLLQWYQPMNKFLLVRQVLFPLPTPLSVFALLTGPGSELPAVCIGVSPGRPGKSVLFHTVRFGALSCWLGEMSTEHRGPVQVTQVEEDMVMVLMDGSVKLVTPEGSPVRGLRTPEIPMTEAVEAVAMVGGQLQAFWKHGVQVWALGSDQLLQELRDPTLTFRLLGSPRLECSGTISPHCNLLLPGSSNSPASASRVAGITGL

## COc1cccn2c(-c3cc4c(c5c3CCNC5=O)Nc3ccc(N5CCOCC5)cc3C4(C)C)cnc12 [compound 3, Cmpd. 3]
HPK1
  IC50: 9.3 nM

## COc1cccn2c(-c3cc4c(c5c3CNC5=O)Nc3ccc(N5CCOCC5)cc3C4(C)C)cnc12 [compound 4, Cmpd. 4]
HPK1
  IC50: 8.9 nM

## CO[C@H]1CCCn2c(-c3cc4c(c5c3CNC5=O)Nc3ccc(N5CCOCC5)cc3C4(C)C)cnc21 [compound 6, Cmpd. 6]
In vitro [1]
  fraction unbound: 0.0112
In vitro [2]
  CC50: 3290 nM
In vitro [3]
  fraction unbound: 0.023
In vitro [4]
  efflux ratio: 2.72
In vitro [5]
  CC50: 7800 nM
In vitro [6]
  half-life: 3.93 h
Human primary T cells
  EC50: 9.5 nM
In vitro [7]
  fraction unbound: 0.0386
hERG [8]
  IC50: 5160 nM
physchem
  solubility: 56.3 µM (≈ 28.1 µg/mL)
In vitro [9]
  half-life: 2.68 h
In vitro [10]
  fraction unbound: 0.046
CYP2C19
  inhibition at 10 µM: 53.6%
CYP1A2
  inhibition at 10 µM: 9%
PXR
  activity at 1 µM: 2%
In vitro [11]
  half-life: 3.42 h
CYP2D6
  inhibition at 10 µM: 20.7%
In vitro [12]
  half-life: 37.7 h
CYP2C9
  inhibition at 10 µM: 24.5%
hERG [13]
  inhibition at 10 µM: 74.5%
